Patent publication US20240043427A1 (Gilead Sciences, Inc., priority 2020, published 2024)

Assays:
CD73 [1] = target: T1, CD73 (Homo sapiens (Human), UniProt P21589); format: biochemical; settings: 1 mM NaH2PO4 in enzyme buffer, CD73 0.3 nM, AMP 15 uM
CD73 [2] = target: T1, CD73; experiment: MDA-MB-231 Cell Based CD73 Activity Assay (DMEM); settings: MDA-MB-231-GFP cells, DMEM medium with 10% human plasma, 200 uM AMP

T1 sequence (P21589 27-574): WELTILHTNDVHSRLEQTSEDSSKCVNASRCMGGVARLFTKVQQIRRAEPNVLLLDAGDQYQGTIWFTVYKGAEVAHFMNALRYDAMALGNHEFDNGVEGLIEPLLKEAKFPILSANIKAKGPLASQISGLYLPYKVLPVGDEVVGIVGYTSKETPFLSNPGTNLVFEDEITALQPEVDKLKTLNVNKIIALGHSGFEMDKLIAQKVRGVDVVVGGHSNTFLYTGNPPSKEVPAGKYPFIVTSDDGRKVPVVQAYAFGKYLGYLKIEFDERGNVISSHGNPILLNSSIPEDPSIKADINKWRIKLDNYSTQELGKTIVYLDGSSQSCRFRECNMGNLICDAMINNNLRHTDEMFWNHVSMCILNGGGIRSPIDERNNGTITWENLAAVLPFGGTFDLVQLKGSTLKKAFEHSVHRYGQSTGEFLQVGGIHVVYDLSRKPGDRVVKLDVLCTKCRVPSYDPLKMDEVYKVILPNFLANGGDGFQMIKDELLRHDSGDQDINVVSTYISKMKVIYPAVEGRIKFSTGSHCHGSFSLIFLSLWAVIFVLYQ

Structure (SMILES)	IC50 (CD73 [1]) [nM]	EC50 (CD73 [2]) [nM]
CC(F)(F)CN1C(=O)C2(CC2)c2ccc([C@H]3C[C@@H]3c3cc(-c4c[nH]c(=O)[nH]c4=O)nn4ccnc34)cc21 (racemic) [Example 733, 5-(8-((1S,2S)-2-(1′-(2,2-difluoropropyl)-2′-oxospiro[cyclopropane-1,3′-indolin]-6′-yl)cyclopropyl)imidazo[1,2-b]pyridazin-6-yl)pyrimidine-2,4(1H,3H)-dione]	2.72	0.11
O=C1N(CC2(F)CC2)c2cc([C@H]3C[C@@H]3c3cc(-c4c[nH]c(=O)[nH]c4=O)nn4ccnc34)ccc2C12CC2 (racemic) [Example 734, 5-(8-((1S,2S)-2-(1′-((1-fluorocyclopropyl)methyl)-2′-oxospiro[cyclopropane-1,3′-indolin]-6′-yl)cyclopropyl)imidazo[1,2-b]pyridazin-6-yl)pyrimidine-2,4(1H,3H)-dione]	1.69	0.19
O=C1N(CC(F)(F)C(F)F)c2cc([C@H]3C[C@@H]3c3cc(-c4c[nH]c(=O)[nH]c4=O)nn4ccnc34)ccc2C12CC2 (racemic) [Example 736, 5-(8-((1S,2S)-2-(2′-oxo-1′-(2,2,3,3-tetrafluoropropyl)spiro[cyclopropane-1,3′-indolin]-6′-yl)cyclopropyl)imidazo[1,2-b]pyridazin-6-yl)pyrimidine-2,4(1H,3H)-dione]	1.91	0.21
O=C1N(CC(F)(F)C(F)(F)F)c2cc([C@H]3C[C@@H]3c3cc(-c4c[nH]c(=O)[nH]c4=O)nn4ccnc34)ccc2C12CC2 (racemic) [Example 737, 5-(8-((1S,2S)-2-(2′-oxo-1′-(2,2,3,3,3-pentafluoropropyl)spiro[cyclopropane-1,3′-indolin]-6′-yl)cyclopropyl)imidazo[1,2-b]pyridazin-6-yl)pyrimidine-2,4(1H,3H)-dione]	1.79	0.18
O=C1N(CC(F)(F)C2CC2)c2cc([C@H]3C[C@@H]3c3cc(-c4c[nH]c(=O)[nH]c4=O)nn4ccnc34)ccc2C12CC2 (racemic) [Example 738, 5-(8-((1S,2S)-2-(1′-(2-cyclopropyl-2,2-difluoroethyl)-2′-oxospiro[cyclopropane-1,3′-indolin]-6′-yl)cyclopropyl)imidazo[1,2-b]pyridazin-6-yl)pyrimidine-2,4(1H,3H)-dione]	1.74	0.21
O=C1N(CCC(F)(F)F)c2cc([C@H]3C[C@@H]3c3cc(-c4c[nH]c(=O)[nH]c4=O)nn4ccnc34)ccc2C12CC2 (racemic) [Example 746, 5-(8-((1S,2S)-2-(2′-oxo-1′-(3,3,3-trifluoropropyl)spiro[cyclopropane-1,3′-indolin]-6′-yl)cyclopropyl)imidazo[1,2-b]pyridazin-6-yl)pyrimidine-2,4(1H,3H)-dione]	2.37	0.84
CC1(C)CN(c2cc(-c3c[nH]c(=O)[nH]c3=O)nn3ccnc23)CC1(F)F [Example 80, 5-[8-(3,3-difluoro-4,4-dimethyl-pyrrolidin-1-yl)imidazo[1,2-b]pyridazin-6-yl]-1H-pyrimidine-2,4-dione]	1.81	6.79
CC1(C)CN(c2cc(-c3c[nH]c(=O)[nH]c3=O)nn3c(F)cnc23)CC1(F)F [Example 81, 5-[8-(3,3-difluoro-4,4-dimethyl-pyrrolidin-1-yl)-3-fluoro-imidazo[1,2-b]pyridazin-6-yl]-1H-pyrimidine-2,4-dione]	1.93	8.22
O=c1[nH]cc(-c2cc(N3CC(F)(F)C4(CC4)C3)c3ncc(F)n3n2)c(=O)[nH]1 [Example 82, 5-(8-(7,7-difluoro-5-azaspiro[2.4]heptan-5-yl)-3-fluoroimidazo[1,2-b]pyridazin-6-yl)pyrimidine-2,4(1H,3H)-dione]	3.49	16.4
O=c1[nH]cc(-c2cc(N3CC(F)(F)C4(CC4)C3)c3nccn3n2)c(=O)[nH]1 [Example 83, 5-(8-(7,7-difluoro-5-azaspiro[2.4]heptan-5-yl)imidazo[1,2-b]pyridazin-6-yl)pyrimidine-2,4(1H,3H)-dione]	1.47	6.65
O=c1[nH]cc(-c2cc(N3CC(F)(F)C4(CC4)C3)c3ncnn3n2)c(=O)[nH]1 [Example 84, 5-(8-(7,7-difluoro-5-azaspiro[2.4]heptan-5-yl)-[1,2,4]triazolo[1,5-b]pyridazin-6-yl)pyrimidine-2,4(1H,3H)-dione]	1.1	6.56
CC(C)n1ncc2ccc([C@H]3C[C@@H]3c3cc(-c4c[nH]c(=O)[nH]c4=O)nn4ccnc34)cc21 [Example 120, 5-(8-((1S,2S)-2-(1-isopropyl-1H-indazol-6-yl)cyclopropyl)imidazo[1,2-b]pyridazin-6-yl)pyrimidine-2,4(1H,3H)-dione]	0.85	0.85
O=c1[nH]cc(-c2cc([C@H]3C[C@@H]3c3ccc(OC(F)F)nc3)c3ncc(F)n3n2)c(=O)[nH]1 [Example 122, 5-(8-((1S,2S)-2-(6-(difluoromethoxy)pyridin-3-yl)cyclopropyl)-3-fluoroimidazo[1,2-b]pyridazin-6-yl)pyrimidine-2,4(1H,3H)-dione]	2.39	11.1
O=c1[nH]cc(-c2cc([C@@H]3C[C@H]3c3ccc4cnn(CC(F)F)c4c3)c3nccn3n2)c(=O)[nH]1 [Example 124, 5-(8-((1R,2R)-2-(1-(2,2-difluoroethyl)-1H-indazol-6-yl)cyclopropyl)imidazo[1,2-b]pyridazin-6-yl)pyrimidine-2,4(1H,3H)-dione]	2.6	0.62
O=c1[nH]cc(-c2cc([C@H]3C[C@@H]3c3ccc4cnn(CC(F)F)c4c3)c3nccn3n2)c(=O)[nH]1 [Example 125, 5-(8-((1S,2S)-2-(1-(2,2-difluoroethyl)-1H-indazol-6-yl)cyclopropyl)imidazo[1,2-b]pyridazin-6-yl)pyrimidine-2,4(1H,3H)-dione]	0.71	0.17
O=c1[nH]cc(-c2cc([C@H]3C[C@@H]3c3ccc4ccn(CC(F)(F)F)c4n3)c3nccn3n2)c(=O)[nH]1 [Example 126, 5-(8-((1S,2S)-2-(1-(2,2,2-trifluoroethyl)-1H-pyrrolo[2,3-b]pyridin-6-yl)cyclopropyl)imidazo[1,2-b]pyridazin-6-yl)pyrimidine-2,4(1H,3H)-dione]	1.13	0.46
O=c1[nH]cc(-c2cc([C@H]3C[C@@H]3c3ccc4cnn(CC(F)F)c4c3F)c3nccn3n2)c(=O)[nH]1 [Example 129, 5-(8-((1S,2S)-2-(1-(2,2-difluoroethyl)-7-fluoro-1H-indazol-6-yl)cyclopropyl)imidazo[1,2-b]pyridazin-6-yl)pyrimidine-2,4(1H,3H)-dione]	1.11	0.3
O=c1[nH]cc(-c2cc([C@H]3C[C@@H]3c3ccc4nc(C(F)(F)F)ccc4c3)c3nccn3n2)c(=O)[nH]1 [Example 131, 5-(8-((1S,2S)-2-(2-(trifluoromethyl)quinolin-6-yl)cyclopropyl)imidazo[1,2-b]pyridazin-6-yl)pyrimidine-2,4(1H,3H)-dione]	0.78	6.1
O=c1[nH]cc(-c2cc([C@H]3C[C@@H]3c3ccc(OC(F)F)cn3)c3ncc(F)n3n2)c(=O)[nH]1 [Example 132, 5-(8-((1S,2S)-2-(5-(difluoromethoxy)pyridin-2-yl)cyclopropyl)-3-fluoroimidazo[1,2-b]pyridazin-6-yl)pyrimidine-2,4(1H,3H)-dione]	1.21	19.4
O=c1[nH]cc(-c2cc([C@H]3C[C@@H]3c3ccc4cnc(C(F)(F)F)cc4c3)c3nccn3n2)c(=O)[nH]1 [Example 133, 5-(8-((1S,2S)-2-(3-(trifluoromethyl)isoquinolin-6-yl)cyclopropyl)imidazo[1,2-b]pyridazin-6-yl)pyrimidine-2,4(1H,3H)-dione]	0.92	1.6
O=c1[nH]cc(-c2cc([C@H]3C[C@@H]3c3cc(C(F)(F)F)c4ncccc4c3)c3ncc(F)n3n2)c(=O)[nH]1 [Example 134, 5-(3-fluoro-8-((1S,2S)-2-(8-(trifluoromethyl)quinolin-6-yl)cyclopropyl)imidazo[1,2-b]pyridazin-6-yl)pyrimidine-2,4(1H,3H)-dione]	1.17	22.7
O=c1[nH]cc(-c2cc([C@H]3C[C@@H]3c3cc(C(F)(F)F)c4ncccc4c3)c3nccn3n2)c(=O)[nH]1 [Example 135, 5-(8-((1S,2S)-2-(8-(trifluoromethyl)quinolin-6-yl)cyclopropyl)imidazo[1,2-b]pyridazin-6-yl)pyrimidine-2,4(1H,3H)-dione]	1.99	44
O=c1[nH]cc(-c2cc([C@H]3C[C@@H]3c3ccc(OC(F)F)cn3)c3nccn3n2)c(=O)[nH]1 [Example 137, 5-(8-((1S,2S)-2-(5-(difluoromethoxy)pyridin-2-yl)cyclopropyl)imidazo[1,2-b]pyridazin-6-yl)pyrimidine-2,4(1H,3H)-dione]	1.28	4.68
O=c1[nH]cc(-c2cc([C@H]3C[C@@H]3c3ccc4c(C(F)(F)F)ccnc4c3)c3nccn3n2)c(=O)[nH]1 [Example 139, 5-(8-((1S,2S)-2-(4-(trifluoromethyl)quinolin-7-yl)cyclopropyl)imidazo[1,2-b]pyridazin-6-yl)pyrimidine-2,4(1H,3H)-dione]	4.55	296
O=c1[nH]cc(-c2cc([C@H]3C[C@@H]3c3ccc(OC(F)F)nc3)c3nccn3n2)c(=O)[nH]1 [Example 140, 5-(8-((1S,2S)-2-(6-(difluoromethoxy)pyridin-3-yl)cyclopropyl)imidazo[1,2-b]pyridazin-6-yl)pyrimidine-2,4(1H,3H)-dione]	1.68	5.25
O=c1[nH]cc(-c2cc([C@H]3C[C@@H]3c3ccc(C(F)(F)F)cn3)c3ncc(F)n3n2)c(=O)[nH]1 [Example 144, 5-(3-fluoro-8-((1S,2S)-2-(5-(trifluoromethyl)pyridin-2-yl)cyclopropyl)imidazo[1,2-b]pyridazin-6-yl)pyrimidine-2,4(1H,3H)-dione]	2.3	6.17
